According to the NIST ThermoML archive (doi:10.1021/je200721d):
± gives the expanded uncertainty stated by the source.

Test: xn = mol fraction of the nth substance listed
Details: Liquid, Vibrating tube method

SMILES: CCCCCCCC [octane] + CCCCCC
- mass density (352.91 K, 7000 kPa, x2 = 0.1654): 656.4 ± 0.32 kg/m3
- mass density (352.91 K, 7000 kPa, x2 = 0.9308): 619.06 ± 0.34 kg/m3
- mass density (352.91 K, 8000 kPa, x2 = 0.1654): 657.6 ± 0.33 kg/m3
- mass density (352.91 K, 8000 kPa, x2 = 0.9308): 620.53 ± 0.35 kg/m3
- mass density (352.91 K, 9000 kPa, x2 = 0.1654): 658.8 ± 0.33 kg/m3
- mass density (352.91 K, 9000 kPa, x2 = 0.9308): 621.96 ± 0.36 kg/m3
- mass density (352.91 K, 10000 kPa, x2 = 0.1654): 659.99 ± 0.34 kg/m3
- mass density (352.91 K, 10000 kPa, x2 = 0.9308): 623.39 ± 0.37 kg/m3
- mass density (352.91 K, 11000 kPa, x2 = 0.1654): 661.15 ± 0.35 kg/m3
- mass density (352.91 K, 11000 kPa, x2 = 0.9308): 624.78 ± 0.38 kg/m3
- mass density (352.91 K, 12000 kPa, x2 = 0.1654): 662.28 ± 0.36 kg/m3
- mass density (352.91 K, 12000 kPa, x2 = 0.9308): 626.15 ± 0.39 kg/m3
- mass density (352.91 K, 13000 kPa, x2 = 0.1654): 663.41 ± 0.37 kg/m3
- mass density (352.91 K, 13000 kPa, x2 = 0.9308): 627.49 ± 0.4 kg/m3
- mass density (352.91 K, 14000 kPa, x2 = 0.1654): 664.53 ± 0.38 kg/m3
- mass density (352.91 K, 14000 kPa, x2 = 0.9308): 628.8 ± 0.41 kg/m3
- mass density (352.91 K, 15000 kPa, x2 = 0.1654): 665.63 ± 0.39 kg/m3
- mass density (352.91 K, 15000 kPa, x2 = 0.9308): 630.08 ± 0.42 kg/m3
- mass density (352.91 K, 16000 kPa, x2 = 0.1654): 666.68 ± 0.4 kg/m3
- mass density (352.91 K, 16000 kPa, x2 = 0.9308): 631.35 ± 0.43 kg/m3
- mass density (352.91 K, 17000 kPa, x2 = 0.1654): 667.73 ± 0.41 kg/m3
- mass density (352.91 K, 17000 kPa, x2 = 0.9308): 632.57 ± 0.45 kg/m3
- mass density (352.91 K, 18000 kPa, x2 = 0.1654): 668.76 ± 0.42 kg/m3
- mass density (352.91 K, 18000 kPa, x2 = 0.9308): 633.78 ± 0.46 kg/m3
- mass density (352.91 K, 19000 kPa, x2 = 0.1654): 669.76 ± 0.43 kg/m3
- mass density (352.91 K, 19000 kPa, x2 = 0.9308): 634.96 ± 0.47 kg/m3
- mass density (352.91 K, 20000 kPa, x2 = 0.1654): 670.78 ± 0.44 kg/m3
- mass density (352.91 K, 20000 kPa, x2 = 0.9308): 636.11 ± 0.48 kg/m3
- mass density (352.91 K, 21000 kPa, x2 = 0.1654): 671.71 ± 0.45 kg/m3
- mass density (352.91 K, 21000 kPa, x2 = 0.9308): 637.22 ± 0.49 kg/m3
- mass density (352.91 K, 22000 kPa, x2 = 0.1654): 672.65 ± 0.46 kg/m3
- mass density (352.91 K, 22000 kPa, x2 = 0.9308): 638.32 ± 0.5 kg/m3
- mass density (352.91 K, 23000 kPa, x2 = 0.1654): 673.59 ± 0.46 kg/m3
- mass density (352.91 K, 23000 kPa, x2 = 0.9308): 639.39 ± 0.51 kg/m3
- mass density (352.91 K, 24000 kPa, x2 = 0.1654): 674.5 ± 0.47 kg/m3
- mass density (352.91 K, 24000 kPa, x2 = 0.9308): 640.43 ± 0.52 kg/m3
- mass density (352.91 K, 25000 kPa, x2 = 0.1654): 675.39 ± 0.48 kg/m3
- mass density (352.91 K, 25000 kPa, x2 = 0.9308): 641.44 ± 0.54 kg/m3
- mass density (352.92 K, 1000 kPa, x2 = 0.7995): 618.46 ± 0.28 kg/m3
- mass density (352.92 K, 2000 kPa, x2 = 0.7995): 619.98 ± 0.29 kg/m3
- mass density (352.92 K, 3000 kPa, x2 = 0.7995): 621.51 ± 0.3 kg/m3
- mass density (352.92 K, 4000 kPa, x2 = 0.7995): 623 ± 0.31 kg/m3
- mass density (352.92 K, 5000 kPa, x2 = 0.7995): 624.48 ± 0.32 kg/m3
- mass density (352.92 K, 6000 kPa, x2 = 0.7995): 625.93 ± 0.33 kg/m3
- mass density (352.92 K, 7000 kPa, x2 = 0.7995): 627.37 ± 0.34 kg/m3
- mass density (352.92 K, 8000 kPa, x2 = 0.7995): 628.79 ± 0.35 kg/m3
- mass density (352.92 K, 9000 kPa, x2 = 0.7995): 630.18 ± 0.36 kg/m3
- mass density (352.92 K, 10000 kPa, x2 = 0.7995): 631.54 ± 0.37 kg/m3
- mass density (352.92 K, 11000 kPa, x2 = 0.7995): 632.86 ± 0.38 kg/m3
- mass density (352.92 K, 12000 kPa, x2 = 0.7995): 634.17 ± 0.39 kg/m3
- mass density (352.92 K, 13000 kPa, x2 = 0.7995): 635.46 ± 0.4 kg/m3
- mass density (352.92 K, 14000 kPa, x2 = 0.7995): 636.72 ± 0.41 kg/m3
- mass density (352.92 K, 15000 kPa, x2 = 0.7995): 637.96 ± 0.42 kg/m3
- mass density (352.92 K, 16000 kPa, x2 = 0.7995): 639.16 ± 0.43 kg/m3
- mass density (352.92 K, 17000 kPa, x2 = 0.7995): 640.35 ± 0.44 kg/m3
- mass density (352.92 K, 18000 kPa, x2 = 0.7995): 641.51 ± 0.45 kg/m3
- mass density (352.92 K, 19000 kPa, x2 = 0.7995): 642.64 ± 0.46 kg/m3
- mass density (352.92 K, 20000 kPa, x2 = 0.7995): 643.75 ± 0.47 kg/m3
- mass density (352.92 K, 21000 kPa, x2 = 0.7995): 644.82 ± 0.48 kg/m3
- mass density (352.92 K, 22000 kPa, x2 = 0.7995): 645.88 ± 0.49 kg/m3
- mass density (352.92 K, 23000 kPa, x2 = 0.7995): 646.92 ± 0.5 kg/m3
- mass density (352.92 K, 24000 kPa, x2 = 0.7995): 647.94 ± 0.51 kg/m3
- mass density (352.92 K, 25000 kPa, x2 = 0.7995): 648.91 ± 0.53 kg/m3
- mass density (362.76 K, 1000 kPa, x2 = 0.5749): 622.07 ± 0.28 kg/m3
- mass density (362.76 K, 2000 kPa, x2 = 0.5749): 623.63 ± 0.29 kg/m3
- mass density (362.76 K, 3000 kPa, x2 = 0.5749): 625.2 ± 0.3 kg/m3
- mass density (362.76 K, 4000 kPa, x2 = 0.5749): 626.68 ± 0.3 kg/m3
- mass density (362.76 K, 5000 kPa, x2 = 0.5749): 628.17 ± 0.31 kg/m3
- mass density (362.76 K, 6000 kPa, x2 = 0.5749): 629.67 ± 0.32 kg/m3
- mass density (362.76 K, 7000 kPa, x2 = 0.5749): 631.09 ± 0.33 kg/m3
- mass density (362.76 K, 8000 kPa, x2 = 0.5749): 632.53 ± 0.34 kg/m3
- mass density (362.76 K, 9000 kPa, x2 = 0.5749): 633.92 ± 0.35 kg/m3
- mass density (362.76 K, 10000 kPa, x2 = 0.5749): 635.27 ± 0.36 kg/m3
- mass density (362.76 K, 11000 kPa, x2 = 0.5749): 636.64 ± 0.37 kg/m3
- mass density (362.76 K, 12000 kPa, x2 = 0.5749): 637.96 ± 0.38 kg/m3
- mass density (362.76 K, 13000 kPa, x2 = 0.5749): 639.28 ± 0.39 kg/m3
- mass density (362.76 K, 14000 kPa, x2 = 0.5749): 640.55 ± 0.4 kg/m3
- mass density (362.76 K, 15000 kPa, x2 = 0.5749): 641.82 ± 0.41 kg/m3
- mass density (362.76 K, 16000 kPa, x2 = 0.5749): 643.03 ± 0.42 kg/m3
- mass density (362.76 K, 17000 kPa, x2 = 0.5749): 644.23 ± 0.43 kg/m3
- mass density (362.76 K, 18000 kPa, x2 = 0.5749): 645.42 ± 0.44 kg/m3
- mass density (362.76 K, 19000 kPa, x2 = 0.5749): 646.56 ± 0.45 kg/m3
- mass density (362.76 K, 20000 kPa, x2 = 0.5749): 647.68 ± 0.46 kg/m3
- mass density (362.76 K, 21000 kPa, x2 = 0.5749): 648.78 ± 0.47 kg/m3
- mass density (362.76 K, 22000 kPa, x2 = 0.5749): 649.86 ± 0.48 kg/m3
- mass density (362.76 K, 23000 kPa, x2 = 0.5749): 650.91 ± 0.49 kg/m3
- mass density (362.76 K, 24000 kPa, x2 = 0.5749): 651.95 ± 0.51 kg/m3
- mass density (362.76 K, 25000 kPa, x2 = 0.5749): 652.96 ± 0.52 kg/m3
- mass density (362.88 K, 1000 kPa, x2 = 0.1654): 640.2 ± 0.27 kg/m3
- mass density (362.88 K, 1000 kPa, x2 = 0.2199): 637.97 ± 0.27 kg/m3
- mass density (362.88 K, 2000 kPa, x2 = 0.1654): 641.61 ± 0.28 kg/m3
- mass density (362.88 K, 2000 kPa, x2 = 0.2199): 639.42 ± 0.28 kg/m3
- mass density (362.88 K, 3000 kPa, x2 = 0.1654): 642.98 ± 0.29 kg/m3
- mass density (362.88 K, 3000 kPa, x2 = 0.2199): 640.79 ± 0.29 kg/m3
